Assay results taken from patent publication US10004232B2 (priority 2011, dated 2018).

Legend:
Plasmopara viticola = assay: Plasmopara test (grapevine) / protective; format: in vivo; conditions: young grapevine plants, protective spray, active ingredient concentration 10 ppm, evaluation 6 days after inoculation
Protocol: Plasmopara Test (Grapevine)/Protective
Solvent: 24.5 parts by weight of acetone
• 24.5 parts by weight of dimethylacetamide Emulsifier: 1 part by weight of alkylaryl polyglycol ether
An appropriate preparation of active ingredient is prepared by mixing 1 part by weight of active ingredient with the specified amounts of solvent and emulsifier, and diluting the concentrate with water to the desired concentration.
To test for protective activity, young plants are sprayed with the preparation of active ingredient at the specified application rate. After the spray coating has dried on, the plants are inoculated with an aqueous spore suspension of Plasmopara viticola and then spend 1 day in an incubation cabinet at about 20° C. and 100% relative atmospheric humidity. The plants are subsequently placed for 4 days in a greenhouse at about 21° C. and about 90% atmospheric humidity. The plants are then moistened and placed in an incubation cabin for 1 day.
Evaluation takes place 6 days after inoculation. Here, 0% denotes an efficacy which corresponds to that of the control, whereas an efficacy of 100% means that no infestation is observed.

[1] = logP determination by HPLC on reversed-phase columns (C 18), EEC Directive 79/831 Annex V.A8; format: physicochemical; conditions: for chromatographic logP: reversed-phase C18 HPLC column
Excerpt: Calibration takes place using unbranched alkan-2-ones (having 3 to 16 carbon atoms) whose log P values are known (log P values determined on the basis of the retention times, by linear interpolation between two successive alkanones).

Phytophthora infestans = format: in vivo; conditions: young tomato plants, protective spray, active ingredient concentration 100 ppm, evaluation 7 days after inoculation
[2] = [a] LC-MS in the acidic range, pH 2.7, 0.1% aqueous formic acid and acetonitrile
[3] = [b] LC-MS in the neutral range, pH 7.8, 0.001 molar aqueous ammonium hydrogencarbonate and acetonitrile

In the case of `C#CCOc1cc(F)cc(F)c1C1CC(c2csc(C3CCN(C(=O)Cn4nc(C(F)F)cc4C(F)F)CC3)n2)=NO1` (racemic) [Example I-13], the Eff. % (Plasmopara viticola) is reported as 100% and the LogP [1, 2] is reported as 3.32^[a].

In the case of `C#CCOc1cc(Cl)cc(Cl)c1C1CC(c2csc(C3CCN(C(=O)Cn4nc(C(F)F)cc4C(F)F)CC3)n2)=NO1` (racemic) [Example I-21], the Eff. % (Plasmopara viticola) is reported as 100%, the Eff. % (Phytophthora infestans) is reported as 95% and the LogP [1, 2] is reported as 3.94. For the same molecule, the LogP [1, 3] was 3.85.

In the case of `C#CCOc1cc(F)c(C2CC(c3csc(C4CCN(C(=O)Cn5nc(C(F)F)cc5C(F)F)CC4)n3)=NO2)c(F)c1` (racemic) [Example I-3], the Eff. % (Plasmopara viticola) is reported as 100%, the Eff. % (Phytophthora infestans) is reported as 98% and the LogP [1, 2] is reported as 3.3. For the same molecule, the LogP [1, 3] was 3.26.

For `O=C(Oc1cc(F)cc(F)c1C1CC(c2csc(C3CCN(C(=O)Cn4nc(C(F)F)cc4C(F)F)CC3)n2)=NO1)C1CC1` (racemic) [Example I-16], the LogP [1, 2] was 3.5 and the LogP [1, 3] was 3.42.

With `O=C(Cn1nc(C(F)F)cc1C(F)F)N1CCC(c2nc(C3=NOC(c4c(F)cc(F)cc4OCC4CC4)C3)cs2)CC1` (racemic) [Example I-15] the LogP [1, 2] was 3.81 and the LogP [1, 3] was 3.76.

Work on `C#CCOc1c(F)cc(F)cc1C1CC(c2csc(C3CCN(C(=O)Cn4nc(C(F)F)cc4C(F)F)CC3)n2)=NO1` (racemic) [Example I-10] yielded a LogP [1, 2] of 3.58 and a LogP [1, 3] of 3.51.

Work on `C#CCOc1ccc(F)c(C2CC(c3csc(C4CCN(C(=O)Cn5nc(C(F)F)cc5C(F)F)CC4)n3)=NO2)c1F` (stereo not drawn) [Example I-2, 2-[3,5-Bis(difluoromethyl)-1H-pyrazol-1-yl]-1-[4-(4-{5-[2,6-difluoro-3-(prop-2-yn-1-yloxy)phenyl]-4,5-dihydro-1,2-oxazol-3-yl}-1,3-thiazol-2-yl)piperidin-1-yl]ethanone] yielded an Eff. % (Plasmopara viticola) of 100%, an Eff. % (Phytophthora infestans) of 94% and a chromatographic logP [1, 2] of 3.26. It also gave a chromatographic logP [1, 3] of 3.18.

In the case of `C=CCOc1cc(Cl)cc(Cl)c1C1CC(c2csc(C3CCN(C(=O)Cn4nc(C(F)F)cc4C(F)F)CC3)n2)=NO1` (racemic) [Example I-18], the Eff. % (Plasmopara viticola) is reported as 96%, the Eff. % (Phytophthora infestans) is reported as 95% and the LogP [1, 2] is reported as 4.29. For the same molecule, the LogP [1, 3] was 4.2.

In the case of `C#CCOc1c(F)ccc(F)c1C1CC(c2csc(C3CCN(C(=O)Cn4nc(C(F)F)cc4C(F)F)CC3)n2)=NO1` (racemic) [Example I-12], the LogP [1, 2] is reported as 3.31 and the LogP [1, 3] is reported as 3.3.

In the case of `C=C(Cl)COc1ccc(F)c(F)c1C1CC(c2csc(C3CCN(C(=O)Cn4nc(C(F)F)cc4C(F)F)CC3)n2)=NO1` (racemic) [Example I-7], the Eff. % (Plasmopara viticola) is reported as 100%, the LogP [1, 2] is reported as 3.68 and the LogP [1, 3] is reported as 3.69.

Molecule `C#CCOc1cc(C)c(C)cc1C1(C)CC(c2csc(C3CCN(C(=O)Cn4nc(C(F)F)cc4C(F)F)CC3)n2)=NO1` (stereo not drawn) [Example I-1, 2-[3,5-Bis(difluoromethyl)-1H-pyrazol-1-yl]-1-[4-(4-{5-[4,5-dimethyl-2-(prop-2-yn-1-yloxy)phenyl]-5-methyl-4,5-dihydro-1,2-oxazol-3-yl}-1,3-thiazol-2-yl)piperidin-1-yl]ethanone] has an Eff. % (Phytophthora infestans) of 98%, a chromatographic logP [1, 2] of 4.1 and a chromatographic logP [1, 3] of 4.04.

Molecule `O=C(Cn1nc(C(F)F)cc1C(F)F)N1CCC(c2nc(C3=NOC(c4c(OC/C=C\Cl)ccc(F)c4F)C3)cs2)CC1` (racemic) [Example I-6] has a LogP [1, 2] of 3.79 and a LogP [1, 3] of 3.71.

For `C#CCOc1ccc(F)c(F)c1C1CC(c2csc(C3CCN(C(=O)Cn4nc(C(F)F)cc4C(F)F)CC3)n2)=NO1` (racemic) [Example I-8], the Eff. % (Plasmopara viticola) was 100%, the LogP [1, 2] was 3.3 and the LogP [1, 3] was 3.27.

For `C=C(Cl)COc1cc(F)cc(F)c1C1CC(c2csc(C3CCN(C(=O)Cn4nc(C(F)F)cc4C(F)F)CC3)n2)=NO1` (racemic) [Example I-19], the Eff. % (Plasmopara viticola) was 100%, the LogP [1, 2] was 3.79 and the LogP [1, 3] was 3.7.

Work on `C=CCOc1cc(F)cc(F)c1C1CC(c2csc(C3CCN(C(=O)Cn4nc(C(F)F)cc4C(F)F)CC3)n2)=NO1` (racemic) [Example I-20] yielded an Eff. % (Plasmopara viticola) of 100%, a LogP [1, 2] of 3.67 and a LogP [1, 3] of 3.58.

For `C=CCOc1cc(F)c(C2CC(c3csc(C4CCN(C(=O)Cn5nc(C(F)F)cc5C(F)F)CC4)n3)=NO2)c(F)c1` (racemic) [Example I-11], the LogP [1, 2] was 3.7^[a].

Molecule `C=CCOc1ccc(F)c(C2CC(c3csc(C4CCN(C(=O)Cn5nc(C(F)F)cc5C(F)F)CC4)n3)=NO2)c1F` (stereo not drawn) [Example I-4, 1-[4-(4-{5-[3-(Allyloxy)-2,6-difluorophenyl]-4,5-dihydro-1,2-oxazol-3-yl}-1,3-thiazol-2-yl)piperidin-1-yl]-2-[3,5-bis(difluoromethyl)-1H-pyrazol-1-yl]ethanone] has an Eff. % (Plasmopara viticola) of 100%, an Eff. % (Phytophthora infestans) of 95% and a chromatographic logP [1, 2] of 3.59. The chromatographic logP [1, 3] was 3.51.

`O=Cc1cc(F)c(C2CC(c3csc(C4CCN(C(=O)Cn5nc(C(F)F)cc5C(F)F)CC4)n3)=NO2)c(F)c1` (racemic) [Example I-14] showed a LogP [1, 2] of 2.93 and a LogP [1, 3] of 2.87.

For `CS(=O)(=O)Nc1cc(F)c(C2CC(c3csc(C4CCN(C(=O)Cn5nc(C(F)F)cc5C(F)F)CC4)n3)=NO2)c(F)c1` (stereo not drawn) [Example I-5, N-(4-{3-[2-(1-{[3,5-Bis(difluoromethyl)-1H-pyrazol-1-yl]acetyl}piperidin-4-yl)-1,3-thiazol-4-yl]-4,5-dihydro-1,2-oxazol-5-yl}-3,5-difluorophenyl)methanesulphonamide], the Eff. % (Plasmopara viticola) was 96%, the Eff. % (Phytophthora infestans) was 95% and the chromatographic logP [1, 2] was 2.63.

Molecule `C=CCOc1ccc(F)c(F)c1C1CC(c2csc(C3CCN(C(=O)Cn4nc(C(F)F)cc4C(F)F)CC3)n2)=NO1` (racemic) [Example I-17] has an Eff. % (Plasmopara viticola) of 100%, a LogP [1, 2] of 3.53 and a LogP [1, 3] of 3.56.

With `O=C(Oc1cc(F)c(C2CC(c3csc(C4CCN(C(=O)Cn5nc(C(F)F)cc5C(F)F)CC4)n3)=NO2)c(F)c1)C1CC1` (racemic) [Example I-9] the LogP [1, 2] was 3.53^[a].
